What was measured:
[1] = test system: smooth muscle cells; experiment: Myosin Light Chain Double Phosphorylation Assay (ppMLC, cell assay); format: cell-based; details: serum starved smooth muscle cells, compound 1 h, LPA 30 min
Description: Myosin Light Chain Double Phosphorylation Assays (ppMLC, cell assay).
Serum starved smooth muscle cells were incubated with compound for 1 h before induction of myosin light chain phosphorylation by LPA for 30 min. Cells were washed and fixed before staining for phosphorylated myosin light chain and DNA. Phosphorylation status was quantitated with the LI-COR Odyssey Imager. […] For example, the IC50 of Example 169 is 6 nM.

[2] = test system: N2a cells; experiment: Neurite Length Assay (N2a, cell assay); format: cell-based; details: Mus musculus, neurite retraction induced by 5 uM LPA
Description: Neurite Length Assay (N2a, Cell Assay).
N2a cells are maintained in DMEM/FBS at 37 C and 5% CO2. For the experiment the cells were plated on a poly-D-lysine coated 96-well tissue culture plate. After attachment, cell differentiation was induced for 2 days by addition of 10 uM retinoic acid. Cells were treated for 1 h with a dilution of compounds in 0.3% DMSO final concentration before neurite retraction was induced by 5 uM LPA. Cells were stained for tubulin and nuclei and images were acquired on a INCell 1000 workstation. Images were analyzed using the developer toolbox and neurite length was quantitated. […] For example, the IC50 of Example 169 is 4 nM.

[3] = molecular target: Rhok2 (Homo sapiens, UniProt O75116); experiment: Enzymatic Rho kinase assay (Kinase-Glo luminescence, S6 peptide substrate); format: biochemical; details: Rhok2 enzyme, 2 hours at 25 degrees Celsius
Description: Enzymatic Rho kinase (ROCK I and ROCK II) Assays.
The assay is based on ability of Rhok2 to phosphorylate a specific peptide sequence derived from its substrate—ribosomal protein S6 (amino acid residues 229-239, (LCB-[…]-NH2)). Rhok2 uses ATP as a donor of phosphate for the phosphorylation of the substrate, which leads to the depletion of ATP in the reaction mix. An assay kit (“Kinase-Glo”, Promega) was used to quantify enzyme activity. Using this kit, residual amounts of ATP are measured by a secondary enzymatic reaction, through which luciferase utilizes the remaining ATP to produce luminescence. Luminescent signal is directly proportional to ATP concentration and inversely proportional to Rhok2 activity.
This dose response assay was conducted in 1536 well plate format. Each concentration was tested nominally in triplicate. […] Plates were incubated for 10 minutes and luminescence was read on Perkin-Elmer Viewlux for 60 seconds. […] The percent inhibition for each well has been calculated as follows: % inhibition=(test compound−median_negative_control)/(median_positive_control−median_negative_control)*100 where the positive control is Y-27632 (13 micromolar) and negative control is DMSO only. […]

Rhok2, sequence (O75116 whole entry): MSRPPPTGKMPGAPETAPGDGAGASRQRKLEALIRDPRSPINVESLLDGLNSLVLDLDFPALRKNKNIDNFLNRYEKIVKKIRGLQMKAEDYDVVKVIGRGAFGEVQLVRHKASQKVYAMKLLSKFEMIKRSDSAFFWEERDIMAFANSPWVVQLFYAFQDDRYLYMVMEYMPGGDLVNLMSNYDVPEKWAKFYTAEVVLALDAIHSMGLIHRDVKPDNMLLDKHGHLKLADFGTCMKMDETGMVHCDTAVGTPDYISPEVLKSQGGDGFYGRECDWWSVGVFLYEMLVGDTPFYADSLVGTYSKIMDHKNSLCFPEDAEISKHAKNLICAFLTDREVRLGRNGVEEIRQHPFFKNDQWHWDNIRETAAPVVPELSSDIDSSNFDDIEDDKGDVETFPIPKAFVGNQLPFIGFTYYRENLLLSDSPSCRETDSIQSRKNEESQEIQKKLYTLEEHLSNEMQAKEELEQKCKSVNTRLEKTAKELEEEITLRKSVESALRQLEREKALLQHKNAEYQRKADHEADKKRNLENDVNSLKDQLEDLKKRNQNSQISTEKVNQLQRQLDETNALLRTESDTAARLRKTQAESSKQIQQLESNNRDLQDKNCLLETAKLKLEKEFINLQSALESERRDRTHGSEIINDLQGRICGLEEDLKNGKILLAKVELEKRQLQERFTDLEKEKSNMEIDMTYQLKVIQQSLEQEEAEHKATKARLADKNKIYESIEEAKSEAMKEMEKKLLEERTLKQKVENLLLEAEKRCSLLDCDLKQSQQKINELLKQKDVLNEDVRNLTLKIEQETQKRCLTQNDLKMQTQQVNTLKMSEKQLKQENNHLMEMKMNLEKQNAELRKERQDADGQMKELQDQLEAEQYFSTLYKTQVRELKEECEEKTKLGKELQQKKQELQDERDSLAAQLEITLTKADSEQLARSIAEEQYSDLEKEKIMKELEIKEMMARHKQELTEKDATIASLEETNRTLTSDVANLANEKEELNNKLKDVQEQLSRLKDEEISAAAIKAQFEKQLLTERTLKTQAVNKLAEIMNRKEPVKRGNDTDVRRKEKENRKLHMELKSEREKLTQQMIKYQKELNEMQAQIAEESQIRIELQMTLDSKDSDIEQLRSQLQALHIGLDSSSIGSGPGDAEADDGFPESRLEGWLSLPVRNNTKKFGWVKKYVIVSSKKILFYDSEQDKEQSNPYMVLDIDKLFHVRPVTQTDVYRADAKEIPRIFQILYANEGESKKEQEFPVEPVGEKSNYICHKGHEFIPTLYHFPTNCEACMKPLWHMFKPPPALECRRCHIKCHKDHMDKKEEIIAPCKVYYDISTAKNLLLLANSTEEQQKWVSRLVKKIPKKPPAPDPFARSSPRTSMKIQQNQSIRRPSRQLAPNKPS

Q: `COc1ccc2c(c1)CC(c1nc3cc(-c4ccncc4)cc(F)c3[nH]1)CO2` (stereo not drawn) [Example 169, 7-fluoro-2-(6-methoxychroman-3-yl)-5-(pyridin-4-yl)-1H-benzo[d]imidazole] was tested. Which IC50 [1] did it give?
A: 6 nM

Q: What about the IC50 [2] of the same compound?
A: 4 nM

Q: And the IC50 [3]?
A: 6 nM

Source: US20110052562A1, “BENZIMIDAZOLES AND ANALOGS AS RHO KINASE INHIBITORS” (The Scripps Research Institute, priority 2007, published 2011)
